# Assay results: patent US20200384124A1, “VECTOR FOR PHARMACOLOGICALLY ACTIVE MATER-INSOLUBLE MOLECULES, AND PROCESS OF PREPARING SAME” (priority 2017, published 2020)
# Tests used:
# U-87 MG spheroids [1] = assay: 3D culture spheroid size by optical microscopy; assay type: cell-based, human
# Protocol: Spheroids (cells in 3D culture) help to better represent the tumor environment. They are composed of necrotic cells in their center and proliferating cells in the periphery. […] The cells are maintained at 37° C. and 5% of CO2 and 10 μl of fresh medium are added every two days to all the wells (controls and treated). […] Before treatment and then every two days, the spheroids are observed under an optical microscope coupled to a camera (Nikon ECLIPSE TS100), at magnification*4.;
# [2] = test system: microtubular network in U-87-MG and HMEC-1 cells; assay: Indirect immunofluorescence of tubulin, comparison with PTX (Example 24); assay type: cell-based, human; conditions: 10, 50 and 100 nM, 6 h of treatment
# Protocol: The U-87-MG and HMEC-1 cells are seeded on Lab-Tek® culture chambers (Nunc). […] After 6 h of treatment, the medium is replaced by a solution of ice-cold methanol making it possible to fix and permeabilize the cells. […] The labeling of the nucleus is carried out with a solution of DAPI or 4,6-diamidino-2-phenylindole (0.25 μg/ml; Sigma) for 2 min. The blade is finally mounted with Prolong® (Invitrogen) antifading. The observation is carried out with an epifluorescence microscope (Leica DM-IRBE) coupled with a digital camera (Princeton Instruments; CCD camera coolsnap FX).
# U-87 MG cells = assay: MTT cytotoxicity test of PTX and NPC2-PTX (2D); assay type: cell-based, human
# Protocol: The volume of seeding and treatment is maintained at 150 μL per well and each condition is carried out with a conventional incubation at 37° C. […] This test uses as reagent 3-(4,5-Dimethylthiazol-2-yl)-2,5-Diphenyltetrazolium Bromide (MTT), which is converted into formazan (crystal violet) by living cells. The latter absorbent at the wavelength of 600 nm is detectable by an absorbance measurement.
# (§1) As soon as the formazan crystals are visible in the cells under a light field microscope, the medium is replaced by 150 μl of dimethylsulfoxide (DMSO). The cells are then lysed, the formazan crystals dissolved, and the absorbance is measured with a Multiskan spectrophotometer (Ascent, Labtec Systems with a filter at 600 nm.
# (§2) The percentage of viability is obtained by comparing the absorbance value of the treated cells with the absorbance value of the untreated control cells, which is considered as a reference and equivalent to 100% of viability. The standard deviation is calculated from 3 independent experiments.
# HMEC-1 cells = assay: MTT cytotoxicity test of PTX and NPC2-PTX (2D); assay type: cell-based; conditions: Homo sapiens, HMEC-1, 72 h
# Protocol: (§3) The volume of seeding and treatment is maintained at 150 μL per well and each condition is carried out with a conventional incubation at 37° C. A cell viability test is carried out by an MTT test after 72 h of treatment. This test uses as reagent 3-(4,5-Dimethylthiazol-2-yl)-2,5-Diphenyltetrazolium Bromide (MTT), which is converted into formazan (crystal violet) by living cells. The latter absorbent at the wavelength of 600 nm is detectable by an absorbance measurement.
# as §1, §2
# SK-N-SH cells = assay: MTT cytotoxicity test of PTX and NPC2-PTX (2D); assay type: cell-based; conditions: Homo sapiens, 72 h
# Protocol: as §3, §1, §2
# U-87 MG spheroids [3] = assay: 3D culture spheroid viability by Alamar Blue test; assay type: cell-based, human; conditions: 2.8 times the IC50, Alamar Blue
# Protocol: Spheroids (cells in 3D culture) help to better represent the tumor environment. They are composed of necrotic cells in their center and proliferating cells in the periphery. […] The cells are maintained at 37° C. and 5% of CO2 and 10 μl of fresh medium are added every two days to all the wells (controls and treated). […] This measurement is done in one step and uses a reagent based on resazurin, which is reduced by living cells. The reduced compound (=resofurin) is detectable by fluorescence (λex=584 nm and λem=620 nm) and the signal measured is proportional to the number of living cells. Once the above treatment has been set up, 10 μL of Alamar Blue are added to each well 7 days or 14 days after treatment and the cells are incubated 12 h before the fluorescence measurement. The data are obtained by reading the fluorescence with POLARstar Omega (BMG LABETCH) after excitation at 584 nm and reading the emission at 620 nm.
smiles,measurement,setting,value
"CC(=O)O[C@H]1C(=O)[C@@]2(C)[C@H]([C@H](OC(=O)c3ccccc3)[C@]3(O)C[C@H](OC(=O)[C@H](O)[C@@H](NC(=O)c4ccccc4)c4ccccc4)C(C)=C1C3(C)C)[C@]1(OC(C)=O)CO[C@@H]1C[C@@H]2O [PTX, paclitaxel]",diameter of the spheroid at day 14,"U-87 MG spheroids [1]; 2.8 times IC50 (PTX 25 nM, NPC2-PTX 70 nM)",757+/−22 μm
same,diameter of the spheroid at day 14,"U-87 MG spheroids [1]; 4 times the IC50 (PTX 40 nM, NPC2-PTX 100 nM)",389+/−33 μm
same,diameter of the spheroid at day 14,"U-87 MG spheroids [1]; IC50 calculated in 2D (PTX 9 nM, NPC2-PTX 25 nM)",800+/−11 μm
same,effects on microtubular network and cell shape,[2],the microtubular network is disturbed
same,inhibition of cell viability in 2D,U-87 MG cells; 2.8 times the IC50,70%
same,IC50,"U-87 MG cells; Homo sapiens, U-87 MG, 72 h",9.2 ± 1.2 nM
same,IC50,HMEC-1 cells,5.7 ± 2 nM
same,IC50,SK-N-SH cells,40.5 ± 7.8 nM
same,decrease / inhibition of cell viability in 3D,U-87 MG spheroids [3],10%
